biological target: Adenosylhomocysteinase (Homo sapiens, UniProt P23526); assay: Inhibition of human recombinant S-adenosyl-L-homocysteine hydrolase assessed as AdoHcy hydrolysis activity by HPLC analysis
Sequence (P23526 whole entry): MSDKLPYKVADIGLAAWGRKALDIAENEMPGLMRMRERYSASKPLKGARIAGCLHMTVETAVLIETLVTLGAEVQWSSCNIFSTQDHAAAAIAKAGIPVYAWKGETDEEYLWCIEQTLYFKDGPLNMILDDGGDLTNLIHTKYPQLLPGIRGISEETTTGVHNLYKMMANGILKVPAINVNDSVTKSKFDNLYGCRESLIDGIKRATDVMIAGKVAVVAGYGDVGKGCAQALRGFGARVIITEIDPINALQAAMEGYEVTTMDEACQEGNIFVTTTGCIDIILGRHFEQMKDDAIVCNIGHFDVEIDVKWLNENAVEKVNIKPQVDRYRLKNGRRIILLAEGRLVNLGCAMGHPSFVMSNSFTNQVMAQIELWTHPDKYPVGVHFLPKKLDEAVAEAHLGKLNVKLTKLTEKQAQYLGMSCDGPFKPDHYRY

SMILES | IC50 [µM]
CN(C(=O)CN(CC(=O)NCCN1CCCC1)c1cc(Cl)ccc1Oc1ccc(Cl)cc1)C1CCNCC1 | > 100
O=C(CN(CC(=O)N1CCc2ccccc2C1)c1cc(Cl)ccc1Oc1ccc(Cl)cc1)NCCN1CCCC1 | 17
O=C(CN(CC(=O)NC1Cc2ccccc2C1)c1cc(Cl)ccc1Oc1ccc(Cl)cc1)NCCN1CCCC1 | 11.4
O=C(CN(CC(=O)N1Cc2ccccc2C1)c1cc(Cl)ccc1Oc1ccc(Cl)cc1)NCCN1CCCC1 | > 100

Compounds with a lower IC50, results first:

IC50 [µM] | SMILES
1.2 | CN(C(=O)CN(CC(=O)NC1CCCNC1)c1cc(Cl)ccc1Oc1ccc(Cl)cc1)C1Cc2ccccc2C1 (configuration not stated)
1.5 | CN(C(=O)CN(CC(=O)NC1CCNC1)c1cc(Cl)ccc1Oc1ccc(Cl)cc1)C1Cc2ccccc2C1 (configuration not stated)
0.97 | O=C(CN(CC(=O)N1CCC(c2ccccc2)CC1)c1cc(Cl)ccc1Oc1ccc(Cl)cc1)NCCN1CCCC1
